Data reported in publication PMC11274128, “Modification and Synergistic Studies of a Novel Frog Antimicrobial Peptide against Pseudomonas aeruginosa Biofilms” (Antibiotics, 2024).
In brackets after ≈: the same amount, converted by molar mass. Like-named read-outs stand apart in the source and are kept apart here. Bridge positions count the residues as written; N and C are the ends. Peptide text beside a SMILES is read from it.

Key:
[1] = test system: P. aeruginosa ATCC CRM 9027 biofilm; format: cell-based, Pseudomonas aeruginosa; details: for MBIC: lowest concentration inhibiting at least 90% of biofilm formation; for MBEC: minimum concentration eradicating at least 99% of the biofilm
Description: (§1) The minimum bactericidal concentration (MBC) is defined as the lowest antibiotic concentration that kills 99.9% of the inoculum. The minimum biofilm inhibitory concentration (MBIC) is the lowest concentration that inhibits at least 90% of the formation of biofilm. The minimum biofilm eradication concentration (MBEC) is the minimum concentration that can eradicate at least 99% of the biofilm. In addition to the eight microorganisms described previously, this experiment was also applied to P. aeruginosa (ATCC 27853, ATCC BAA-2108, P. aeruginosa 01, P. aeruginosa 14).

P. aeruginosa 01 biofilm = format: cell-based, Pseudomonas aeruginosa; details: for MBIC: lowest concentration inhibiting at least 90% of biofilm formation; for MBEC: minimum concentration eradicating at least 99% of the biofilm
Description: as §1

[2] = test system: P. aeruginosa ATCC BAA-2108 biofilm; format: cell-based, Pseudomonas aeruginosa; details: for MBIC: lowest concentration inhibiting at least 90% of biofilm formation; for MBEC: minimum concentration eradicating at least 99% of the biofilm
Description: as §1

P. aeruginosa 14 biofilm = format: cell-based, Pseudomonas aeruginosa; details: for MBIC: lowest concentration inhibiting at least 90% of biofilm formation; for MBEC: minimum concentration eradicating at least 99% of the biofilm
Description: as §1

[3] = test system: P. aeruginosa ATCC 27853 biofilm; format: cell-based, Pseudomonas aeruginosa; details: for MBIC: lowest concentration inhibiting at least 90% of biofilm formation; for MBEC: minimum concentration eradicating at least 99% of the biofilm
Description: as §1

[4] = test system: K. pneumoniae ATCC 43816 biofilm; format: cell-based, Klebsiella pneumoniae; details: for MBIC: lowest concentration inhibiting at least 90% of biofilm formation; for MBEC: minimum concentration eradicating at least 99% of the biofilm
Description: as §1

E. faecalis (NCTC 12697) = test: microbe, parasite or virus in culture; format: cell-based, Enterococcus faecalis; details: planktonic E. faecalis NCTC 12697; for MIC: 37 °C, nine repeats of three independent experiments; for MBC: lowest concentration killing 99.9% of inoculum
Description: (§2) The minimum inhibitory concentration (MIC) is the minimum concentration of an antimicrobial agent that prevents the visible growth of a bacterium or bacteria. The MIC is an important piece of data for research on new antimicrobial agents and helps in the effective selection of antibiotics to improve the success of treatment. The minimum bactericidal concentration (MBC) is defined as the lowest antibiotic concentration that kills 99.9% of the inoculum. This study mainly contained eight different microorganisms, which were Staphylococcus aureus (ATCC 6538), methicillin-resistant Staphylococcus aureus (NCTC 12493), Enterococcus faecalis (NCTC 12697), Escherichia coli (ATCC 8739), Klebsiella pneumoniae (ATCC 43816), Pseudomonas aeruginosa (ATCC CRM 9027), Acinetobacter baumannii (BAA 747), and Candida albicans (ATCC 10231). The bacteria were incubated in the compatible medium at 37 °C overnight.

E. coli ATCC 8739 = details: checkerboard MIC, planktonic E. coli ATCC 8739, 37 °C, 24 h, OD 550 nm
Description: (§3) The bacteria were cultured, subcultured, diluted, and incubated as the methods of the MIC assay. The pure peptides and antibiotics were weighed and, respectively, dissolved in DMSO and dd water to make the final concentration of 2× MIC. […] Different concentrations of peptide and antibiotic solutions were added to a 96-well plate in the form of a checkerboard grid. The blank control and growth control were still 100 µL medium and 100 µL bacterial culture. The plate was incubated at 37 °C for 24 h. After that, the plate reader was used to monitor the absorbance of each well at 550 nm (The Synergy TM HT, BioTek, Winooski, VT, USA).
(§4) Parameter fractional inhibitory concentration indices (FICIs) were used to evaluate the synergistic effect, and the value of that was calculated as follows:FICI = FICa + FICb FICa = MIC combination peptide/MIC single peptide FICb = MIC combination antibiotic/MIC single antibiotic
(§5) The FICI value was interpreted as “synergy” (FICI ≤ 0.5), “no interaction” (0.5 < FICI ≤ 4), or “antagonism” (FICI > 4).

MRSA NCTC 12493 = details: checkerboard MIC, planktonic MRSA NCTC 12493, 37 °C, 24 h, OD 550 nm
Description: as §3, §4, §5

K. pneumoniae ATCC 43816 = details: checkerboard MIC, planktonic K. pneumoniae ATCC 43816, 37 °C, 24 h, OD 550 nm
Description: as §3, §4, §5

[5] = test system: P. aeruginosa ATCC CRM 9027; details: checkerboard MIC, planktonic P. aeruginosa ATCC CRM 9027, 37 °C, 24 h, OD 550 nm
Description: as §3, §4, §5

A. baumannii BAA 747 = details: checkerboard MIC, planktonic A. baumannii BAA 747, 37 °C, 24 h, OD 550 nm
Description: as §3, §4, §5

S. aureus ATCC 6538 = details: checkerboard MIC, planktonic S. aureus ATCC 6538, 37 °C, 24 h, OD 550 nm
Description: as §3, §4, §5

E. faecalis NCTC 12697 = details: checkerboard MIC, planktonic E. faecalis NCTC 12697, 37 °C, 24 h, OD 550 nm
Description: as §3, §4, §5

S. aureus (ATCC 6538) = test: microbe, parasite or virus in culture; format: cell-based, Staphylococcus aureus; details: planktonic S. aureus ATCC 6538; for MIC: 37 °C, nine repeats of three independent experiments, read-out: MIC; for MBC: lowest concentration killing 99.9% of inoculum, read-out: MBC
Description: as §2

E. coli (ATCC 8739) = test: microbe, parasite or virus in culture; format: cell-based, Escherichia coli; details: planktonic E. coli ATCC 8739; for MIC: 37 °C, nine repeats of three independent experiments, read-out: MIC; for MBC: lowest concentration killing 99.9% of inoculum, read-out: MBC
Description: as §2

[6] = peptide combined with gentamicin
[7] = peptide combined with levofloxacin
[8] = peptide combined with vancomycin

Compound: CC[C@H](C)[C@H](NC(=O)[C@H](CCCCN)NC(=O)[C@H](CCCCN)NC(=O)CNC(=O)[C@H](C)NC(=O)[C@H](CCCNC(=N)N)NC(=O)[C@H](CC(C)C)NC(=O)[C@@H](NC(=O)[C@H](C)NC(=O)[C@H](CCCNC(=N)N)NC(=O)[C@H](CC(C)C)NC(=O)[C@H](CC(C)C)NC(=O)CN)C(C)C)C(=O)N[C@H](C(=O)N[C@H]1CSSC[C@@H](C(=O)O)NC(=O)[C@H](CCCNC(=N)N)NC(=O)CNC(=O)[C@H](CO)NC(=O)[C@H](CC(C)C)NC(=O)CNC1=O)C(C)C [Peptide 2170-2R] (H-GLLRAVLRAGKKIVCGLSGRC-OH; disulfide 15-21)
- MBIC [1]: >128/>128 µM
- MBEC [1]: >128/>128 µM
- MBIC (P. aeruginosa 01 biofilm): 32 µM
- MBEC (P. aeruginosa 01 biofilm): 64 µM
- MBIC [2]: >128/>128 µM
- MBEC [2]: >128/>128 µM
- MBIC (P. aeruginosa 14 biofilm): >128/>128 µM
- MBEC (P. aeruginosa 14 biofilm): >128/>128 µM
- MBIC [3]: 8 µM
- MBEC [3]: 16 µM
- MBIC [4]: 32 µM
- MBEC [4]: > 128 µM
- MIC (E. faecalis (NCTC 12697)): 128 µM (≈ 278 µg/mL)
- MBC (E. faecalis (NCTC 12697)): 128 µM (≈ 278 µg/mL)
- FICI (E. coli ATCC 8739; peptide combined with cefepime): 0.5312
- FICI (E. coli ATCC 8739; [6]): 0.125
- FICI (E. coli ATCC 8739; [7]): 0.375
- FICI (E. coli ATCC 8739; [8]): >4
- FICI (MRSA NCTC 12493; peptide combined with cefepime): 0.75
- FICI (MRSA NCTC 12493; [6]): 0.375
- FICI (MRSA NCTC 12493; [7]): 1.125
- FICI (MRSA NCTC 12493; [8]): 0.625
- FICI (K. pneumoniae ATCC 43816; peptide combined with cefepime): 0.1875
- FICI (K. pneumoniae ATCC 43816; [6]): 0.1562
- FICI (K. pneumoniae ATCC 43816; [7]): 1
- FICI (K. pneumoniae ATCC 43816; [8]): 1.125
- FICI ([5]; peptide combined with cefepime): 0.5
- FICI [5, 6]: 0.5
- FICI [5, 7]: 0.625
- FICI [5, 8]: 1.125
- FICI (A. baumannii BAA 747; peptide combined with cefepime): 1.5
- FICI (A. baumannii BAA 747; [6]): 0.25
- FICI (A. baumannii BAA 747; [7]): >4
- FICI (A. baumannii BAA 747; [8]): 0.625
- FICI (S. aureus ATCC 6538; peptide combined with cefepime): 1
- FICI (S. aureus ATCC 6538; [6]): 1
- FICI (S. aureus ATCC 6538; [7]): 0.625
- FICI (S. aureus ATCC 6538; [8]): 0.625
- FICI (E. faecalis NCTC 12697; peptide combined with cefepime): 0.1562
- FICI (E. faecalis NCTC 12697; [6]): 0.625
- FICI (E. faecalis NCTC 12697; [7]): 0.625
- FICI (E. faecalis NCTC 12697; [8]): 0.625
- MIC (S. aureus (ATCC 6538)): 4 µM (≈ 8.67 µg/mL)
- MBC (S. aureus (ATCC 6538)): 8 µM (≈ 17.3 µg/mL)
- MIC (E. coli (ATCC 8739)): 4 µM (≈ 8.67 µg/mL)
- MBC (E. coli (ATCC 8739)): 8 µM (≈ 17.3 µg/mL)

Compound: CC[C@H](C)[C@H](NC(=O)[C@H](CCCCN)NC(=O)[C@H](CCCCN)NC(=O)CNC(=O)[C@H](C)NC(=O)CNC(=O)[C@H](CC(C)C)NC(=O)[C@@H](NC(=O)CNC(=O)[C@H](CO)NC(=O)[C@H](CC(C)C)NC(=O)[C@H](CC(C)C)NC(=O)CN)C(C)C)C(=O)N[C@H](C(=O)N[C@H]1CSSC[C@@H](C(=O)O)NC(=O)[C@H](CCCNC(=N)N)NC(=O)CNC(=O)[C@H](CO)NC(=O)[C@H](CC(C)C)NC(=O)CNC1=O)C(C)C [Nigrosin-6VL] (H-GLLSGVLGAGKKIVCGLSGRC-OH; disulfide 15-21)
- MBIC [1]: >128/>128 µM
- MBEC [1]: >128/>128 µM
- MBIC (P. aeruginosa 01 biofilm): >128/>128 µM
- MBEC (P. aeruginosa 01 biofilm): >128/>128 µM
- MBIC [2]: >128/>128 µM
- MBEC [2]: >128/>128 µM
- MBIC (P. aeruginosa 14 biofilm): >128/>128 µM
- MBEC (P. aeruginosa 14 biofilm): >128/>128 µM
- MBIC [3]: >128/>128 µM
- MBEC [3]: >128/>128 µM
- MBIC [4]: >128/>128 µM
- MBEC [4]: >128/>128 µM
- MIC (E. faecalis (NCTC 12697)): > 128 µM
- MBC (E. faecalis (NCTC 12697)): > 128 µM
- FICI (E. coli ATCC 8739; peptide combined with cefepime): 0.375
- FICI (E. coli ATCC 8739; [6]): 0.125
- FICI (E. coli ATCC 8739; [7]): 0.375
- FICI (E. coli ATCC 8739; [8]): 1.125
- FICI (MRSA NCTC 12493; peptide combined with cefepime): 0.75
- FICI (MRSA NCTC 12493; [6]): 0.5
- FICI (MRSA NCTC 12493; [7]): 2
- FICI (MRSA NCTC 12493; [8]): 1
- FICI (K. pneumoniae ATCC 43816; peptide combined with cefepime): 0.1875
- FICI (K. pneumoniae ATCC 43816; [6]): 0.1875
- FICI (K. pneumoniae ATCC 43816; [7]): 0.625
- FICI (K. pneumoniae ATCC 43816; [8]): 1.125
- FICI ([5]; peptide combined with cefepime): 0.5
- FICI [5, 6]: 0.5
- FICI [5, 7]: 0.5
- FICI [5, 8]: >4
- FICI (A. baumannii BAA 747; peptide combined with cefepime): 1
- FICI (A. baumannii BAA 747; [6]): 0.1875
- FICI (A. baumannii BAA 747; [7]): >4
- FICI (A. baumannii BAA 747; [8]): 1.25
- FICI (S. aureus ATCC 6538; peptide combined with cefepime): 0.625
- FICI (S. aureus ATCC 6538; [6]): 1.5
- FICI (S. aureus ATCC 6538; [7]): 0.625
- FICI (S. aureus ATCC 6538; [8]): 2.25
- FICI (E. faecalis NCTC 12697; peptide combined with cefepime): 0.125
- FICI (E. faecalis NCTC 12697; [6]): 0.625
- FICI (E. faecalis NCTC 12697; [7]): 0.625
- FICI (E. faecalis NCTC 12697; [8]): 0.625
- MIC (S. aureus (ATCC 6538)): 16 µM (≈ 31.8 µg/mL)
- MBC (S. aureus (ATCC 6538)): 32 µM (≈ 63.6 µg/mL)
- MIC (E. coli (ATCC 8739)): 64 µM (≈ 127 µg/mL)
- MBC (E. coli (ATCC 8739)): 128 µM (≈ 254 µg/mL)
